The values below come from PMC9180407, “Unraveling the Binding Mechanism of Alzheimer’s Drugs with Irisin: Spectroscopic, Calorimetric, and Computational Approaches” (International Journal of Molecular Sciences, 2022).

Where two headings read alike, the source gives them in different places.

This experiment concerns the target T1, irisin (Homo sapiens, UniProt Q8NAU1).
T1 construct: gene FNDC5; irisin (secreted ectodomain cleaved from FNDC5), His tag with 3C site (pET15b-His-3C-irisin), tag cleavage not mentioned, E. coli C41-DE3, Ni-NTA purified
T1 sequence (Q8NAU1 80-191 limits assumed): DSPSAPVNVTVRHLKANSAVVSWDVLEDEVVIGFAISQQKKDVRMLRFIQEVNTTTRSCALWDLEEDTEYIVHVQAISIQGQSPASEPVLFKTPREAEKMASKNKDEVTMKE
Briefly: isothermal titration calorimetry. It is filed as binding. The source says: isothermal titration calorimetry on irisin

With `CNCCC(Oc1ccc(C(F)(F)F)cc1)c1ccccc1` (stereo not drawn) [fluoxetine], under “read-out: Ka1 (converted)”, the Kd is 0.156 µM.
As to `COc1ccc2c3c1O[C@H]1C[C@@H](O)C=C[C@@]31CCN(C)C2` [galantamine], the Kd (read-out: Ka2 (converted)) was 8.06 µM.
Turning to `CC12CC3CC(C)(C1)CC(N)(C3)C2` [memantine], under “read-out: Ka2 (converted)”, the Kd is 9.35 µM.
